We go through ten compounds from ChEMBL document CHEMBL5465560, “Selectivity Literature for EUbOPEN Chemogenomic Library” (2024).

The test system of test [1] is Fibroblast growth factor receptor 1 (Homo sapiens), P11362 [V561M]. Nature of the test: Selectivity interaction (LanthaScreen Eu Kinase Binding Assay) EUB0001632a FGFR1. As to conditions: at 10 µM.
The target of test [2] is T1, Phosphatidylinositol 5-phosphate 4-kinase type-2 beta (Homo sapiens) (UniProt P78356).
T1 sequence (whole entry): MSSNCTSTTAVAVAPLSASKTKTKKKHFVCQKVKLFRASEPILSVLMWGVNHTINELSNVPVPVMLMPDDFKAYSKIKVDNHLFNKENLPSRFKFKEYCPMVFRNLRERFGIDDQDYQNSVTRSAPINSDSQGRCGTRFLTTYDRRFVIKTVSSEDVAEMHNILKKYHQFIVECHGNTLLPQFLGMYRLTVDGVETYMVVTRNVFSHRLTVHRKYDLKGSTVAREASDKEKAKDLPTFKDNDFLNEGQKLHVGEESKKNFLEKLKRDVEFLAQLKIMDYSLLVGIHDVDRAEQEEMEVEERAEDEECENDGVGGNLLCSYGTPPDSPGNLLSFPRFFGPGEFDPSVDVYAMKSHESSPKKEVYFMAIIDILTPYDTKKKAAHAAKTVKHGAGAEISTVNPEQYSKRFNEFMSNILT
As to conditions: at 10 µM.

Test [3] deals with Ephrin type-A receptor 5 (Homo sapiens) (UniProt P54756). As to conditions: at 10 µM.
Chain of Ephrin type-A receptor 5 (Homo sapiens) (P54756 whole entry): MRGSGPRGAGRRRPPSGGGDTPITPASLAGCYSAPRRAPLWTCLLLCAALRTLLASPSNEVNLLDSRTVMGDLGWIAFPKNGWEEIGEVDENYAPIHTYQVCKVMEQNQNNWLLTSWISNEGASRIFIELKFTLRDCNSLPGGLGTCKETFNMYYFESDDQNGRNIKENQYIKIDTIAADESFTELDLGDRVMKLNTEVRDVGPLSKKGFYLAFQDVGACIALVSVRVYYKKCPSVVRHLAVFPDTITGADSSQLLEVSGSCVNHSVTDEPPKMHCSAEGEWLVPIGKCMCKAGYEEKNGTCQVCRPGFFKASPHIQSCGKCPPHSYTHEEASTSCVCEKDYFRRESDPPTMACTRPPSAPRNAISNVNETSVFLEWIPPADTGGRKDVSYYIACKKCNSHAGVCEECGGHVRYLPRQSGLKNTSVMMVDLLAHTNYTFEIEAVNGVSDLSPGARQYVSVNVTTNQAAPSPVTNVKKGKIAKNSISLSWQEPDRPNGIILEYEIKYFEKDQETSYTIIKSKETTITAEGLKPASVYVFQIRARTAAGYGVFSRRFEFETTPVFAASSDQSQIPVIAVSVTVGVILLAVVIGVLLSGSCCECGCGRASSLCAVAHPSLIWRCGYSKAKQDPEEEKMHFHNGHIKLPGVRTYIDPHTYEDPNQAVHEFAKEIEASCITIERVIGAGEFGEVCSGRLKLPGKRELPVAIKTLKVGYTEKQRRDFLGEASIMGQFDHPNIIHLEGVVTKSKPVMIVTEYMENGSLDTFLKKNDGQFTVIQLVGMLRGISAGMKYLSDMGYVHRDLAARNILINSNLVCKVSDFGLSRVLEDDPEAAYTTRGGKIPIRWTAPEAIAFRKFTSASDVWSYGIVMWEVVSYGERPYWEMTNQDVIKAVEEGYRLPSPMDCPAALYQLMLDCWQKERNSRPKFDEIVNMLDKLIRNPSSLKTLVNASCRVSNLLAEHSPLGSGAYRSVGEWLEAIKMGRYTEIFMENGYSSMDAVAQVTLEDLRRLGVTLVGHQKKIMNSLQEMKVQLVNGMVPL
Test [4] has as its target Tyrosine-protein kinase Srms (Homo sapiens) (UniProt Q9H3Y6). As to the kind of experiment: Selectivity interaction (KinomeScan (DiscoverX)) EUB0000666a SRMS. As to conditions: at 10 µM.
Test [5] has as its target Mitogen-activated protein kinase kinase kinase kinase 4 (Homo sapiens, UniProt O95819). As to the kind of experiment: Selectivity interaction (KinomeScan (DiscoverX)) EUB0000666a MAP4K4. As to conditions: at 10 µM.
Test [6] concerns the target Death-associated protein kinase 3 (Homo sapiens) (UniProt O43293). As to the kind of experiment: Selectivity interaction (KinomeScan (DiscoverX)) EUB0000607a DAPK3. As to conditions: at 10 µM.
Test [7] deals with T2, Serine/threonine-protein kinase VRK1 (Homo sapiens) (UniProt Q99986).
T2 sequence (whole entry): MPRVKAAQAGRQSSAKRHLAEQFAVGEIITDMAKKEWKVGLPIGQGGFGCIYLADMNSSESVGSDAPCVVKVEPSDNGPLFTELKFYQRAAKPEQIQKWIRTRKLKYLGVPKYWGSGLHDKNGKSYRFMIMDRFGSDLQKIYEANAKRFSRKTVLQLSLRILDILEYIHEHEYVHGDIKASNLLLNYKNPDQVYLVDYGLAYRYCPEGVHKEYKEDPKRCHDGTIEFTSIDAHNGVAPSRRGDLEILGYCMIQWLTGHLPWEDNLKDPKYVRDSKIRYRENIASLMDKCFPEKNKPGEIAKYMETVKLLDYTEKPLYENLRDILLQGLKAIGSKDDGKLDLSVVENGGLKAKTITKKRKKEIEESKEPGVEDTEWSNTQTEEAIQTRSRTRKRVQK
As to the kind of experiment: Selectivity interaction (ProQinase) EUB0000171b VRK1.

The target of test [8] is CDK8/Cyclin C (Homo sapiens) (UniProt P49336+P24863). As to the kind of experiment: Selectivity interaction (ProQinase) EUB0000171b CDK8. In kind it is protein-complex assay.
Test [9] addresses T3, Serine/threonine-protein kinase MAK (Homo sapiens) (UniProt P20794).
T3 sequence (whole entry): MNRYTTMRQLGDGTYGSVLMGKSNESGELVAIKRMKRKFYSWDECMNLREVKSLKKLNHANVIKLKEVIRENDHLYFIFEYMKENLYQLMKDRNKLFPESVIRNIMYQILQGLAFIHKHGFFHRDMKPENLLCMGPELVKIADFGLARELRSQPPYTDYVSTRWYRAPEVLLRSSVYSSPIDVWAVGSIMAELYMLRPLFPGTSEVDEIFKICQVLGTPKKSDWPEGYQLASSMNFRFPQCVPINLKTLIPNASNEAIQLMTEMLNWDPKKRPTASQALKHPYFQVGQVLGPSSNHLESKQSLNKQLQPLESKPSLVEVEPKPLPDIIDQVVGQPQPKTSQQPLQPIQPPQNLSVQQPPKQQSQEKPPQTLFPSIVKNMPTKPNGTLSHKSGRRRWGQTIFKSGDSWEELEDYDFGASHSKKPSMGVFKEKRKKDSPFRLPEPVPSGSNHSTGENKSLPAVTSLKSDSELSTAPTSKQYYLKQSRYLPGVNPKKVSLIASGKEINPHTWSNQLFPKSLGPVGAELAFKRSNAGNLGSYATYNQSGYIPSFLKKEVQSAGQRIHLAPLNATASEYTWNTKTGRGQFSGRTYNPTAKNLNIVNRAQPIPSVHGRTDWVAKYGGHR
Nature of the test: Selectivity interaction (KinomeScan (DiscoverX)) EUB0001049a MAK. As to conditions: at 1 µM.

For a further test, the target named is Histamine H1 receptor (Homo sapiens, UniProt P35367). As to the kind of experiment: Selectivity interaction (Histamine H1 receptor assay, human recombinant ) EUB0000877a HRH1.
Chain of Histamine H1 receptor (P35367 whole entry): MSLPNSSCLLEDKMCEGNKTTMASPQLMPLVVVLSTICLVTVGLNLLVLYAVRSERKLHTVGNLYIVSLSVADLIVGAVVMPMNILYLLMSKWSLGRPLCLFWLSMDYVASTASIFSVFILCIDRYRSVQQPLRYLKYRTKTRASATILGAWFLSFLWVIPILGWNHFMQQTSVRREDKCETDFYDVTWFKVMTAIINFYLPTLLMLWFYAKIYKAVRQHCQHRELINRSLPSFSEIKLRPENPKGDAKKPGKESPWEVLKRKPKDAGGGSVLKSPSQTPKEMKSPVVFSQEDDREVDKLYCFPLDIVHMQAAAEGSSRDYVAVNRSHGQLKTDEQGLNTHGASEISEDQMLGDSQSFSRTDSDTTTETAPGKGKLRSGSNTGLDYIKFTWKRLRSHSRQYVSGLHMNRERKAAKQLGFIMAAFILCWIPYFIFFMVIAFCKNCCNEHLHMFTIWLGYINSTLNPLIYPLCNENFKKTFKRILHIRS
Test [10] addresses T4, Homeodomain-interacting protein kinase 4 (Homo sapiens) (UniProt Q8NE63).
T4 sequence (whole entry): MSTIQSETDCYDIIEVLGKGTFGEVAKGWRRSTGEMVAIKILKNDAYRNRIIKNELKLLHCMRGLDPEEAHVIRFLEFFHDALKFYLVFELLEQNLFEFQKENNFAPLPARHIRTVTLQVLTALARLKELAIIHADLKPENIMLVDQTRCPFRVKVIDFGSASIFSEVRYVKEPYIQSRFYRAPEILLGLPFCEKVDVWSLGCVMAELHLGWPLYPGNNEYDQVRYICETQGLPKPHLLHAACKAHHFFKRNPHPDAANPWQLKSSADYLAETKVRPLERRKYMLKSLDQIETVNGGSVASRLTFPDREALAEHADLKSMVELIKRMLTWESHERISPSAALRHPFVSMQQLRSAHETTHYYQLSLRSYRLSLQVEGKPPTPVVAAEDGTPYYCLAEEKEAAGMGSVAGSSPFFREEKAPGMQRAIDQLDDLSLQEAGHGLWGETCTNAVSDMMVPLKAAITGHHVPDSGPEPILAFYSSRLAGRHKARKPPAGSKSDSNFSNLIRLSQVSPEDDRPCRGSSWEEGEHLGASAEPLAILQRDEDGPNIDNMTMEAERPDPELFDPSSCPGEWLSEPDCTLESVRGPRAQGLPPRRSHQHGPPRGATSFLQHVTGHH
As to the kind of experiment: Selectivity interaction (KinomeScan (DiscoverX)) EUB0000618a HIPK4. As to conditions: at 10 µM.

In test [11] the target is Serine/threonine-protein kinase MARK1 (Homo sapiens) (UniProt Q9P0L2). Nature of the test: Selectivity interaction (KinomeScan (DiscoverX)) EUB0000092b MARK1. As to conditions: at 10 µM.
Chain of Serine/threonine-protein kinase MARK1 (Homo sapiens) (Q9P0L2 whole entry, looked up): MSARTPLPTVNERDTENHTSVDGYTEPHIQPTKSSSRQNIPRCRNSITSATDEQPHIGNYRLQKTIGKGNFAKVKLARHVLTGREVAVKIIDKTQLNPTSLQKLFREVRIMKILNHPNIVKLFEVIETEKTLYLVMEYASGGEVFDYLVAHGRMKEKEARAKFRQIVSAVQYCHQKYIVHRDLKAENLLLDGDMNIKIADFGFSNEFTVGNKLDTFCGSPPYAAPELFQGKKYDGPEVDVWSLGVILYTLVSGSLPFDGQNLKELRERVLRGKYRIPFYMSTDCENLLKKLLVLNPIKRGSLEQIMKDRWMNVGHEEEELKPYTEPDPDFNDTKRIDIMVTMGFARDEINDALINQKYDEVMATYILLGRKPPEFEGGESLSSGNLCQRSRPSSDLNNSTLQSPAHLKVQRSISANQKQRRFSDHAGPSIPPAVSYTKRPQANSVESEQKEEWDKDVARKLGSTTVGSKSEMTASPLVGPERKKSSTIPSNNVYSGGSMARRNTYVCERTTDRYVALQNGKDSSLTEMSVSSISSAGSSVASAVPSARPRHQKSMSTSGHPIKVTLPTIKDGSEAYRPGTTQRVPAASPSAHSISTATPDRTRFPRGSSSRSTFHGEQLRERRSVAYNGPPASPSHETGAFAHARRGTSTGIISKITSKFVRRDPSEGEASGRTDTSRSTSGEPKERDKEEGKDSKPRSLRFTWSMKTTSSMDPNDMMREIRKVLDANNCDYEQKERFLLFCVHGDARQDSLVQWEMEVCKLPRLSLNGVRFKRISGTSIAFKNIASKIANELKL
The target in test [12] is Mitogen-activated protein kinase 8 (Homo sapiens, UniProt P45983). Nature of the test: Selectivity interaction (KinomeScan (DiscoverX)) EUB0001079a MAPK8. As to conditions: at 1 µM.
Chain of Mitogen-activated protein kinase 8 (P45983 whole entry): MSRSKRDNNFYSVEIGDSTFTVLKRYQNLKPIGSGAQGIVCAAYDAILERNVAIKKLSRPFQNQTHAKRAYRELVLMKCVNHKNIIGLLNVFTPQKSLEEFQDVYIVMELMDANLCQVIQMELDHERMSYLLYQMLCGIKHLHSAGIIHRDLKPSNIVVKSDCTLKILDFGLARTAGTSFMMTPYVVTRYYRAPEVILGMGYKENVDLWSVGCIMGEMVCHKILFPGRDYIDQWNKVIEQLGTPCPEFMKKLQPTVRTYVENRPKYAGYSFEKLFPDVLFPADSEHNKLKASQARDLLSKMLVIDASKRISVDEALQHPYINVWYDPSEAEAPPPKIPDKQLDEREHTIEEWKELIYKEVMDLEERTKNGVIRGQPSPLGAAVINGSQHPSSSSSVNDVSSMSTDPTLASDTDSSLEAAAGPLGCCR

Structures are written as SMILES. Where only a bound is given, the exact number is not on record here.

Chain of Tyrosine-protein kinase Srms (Homo sapiens) (Q9H3Y6 whole entry): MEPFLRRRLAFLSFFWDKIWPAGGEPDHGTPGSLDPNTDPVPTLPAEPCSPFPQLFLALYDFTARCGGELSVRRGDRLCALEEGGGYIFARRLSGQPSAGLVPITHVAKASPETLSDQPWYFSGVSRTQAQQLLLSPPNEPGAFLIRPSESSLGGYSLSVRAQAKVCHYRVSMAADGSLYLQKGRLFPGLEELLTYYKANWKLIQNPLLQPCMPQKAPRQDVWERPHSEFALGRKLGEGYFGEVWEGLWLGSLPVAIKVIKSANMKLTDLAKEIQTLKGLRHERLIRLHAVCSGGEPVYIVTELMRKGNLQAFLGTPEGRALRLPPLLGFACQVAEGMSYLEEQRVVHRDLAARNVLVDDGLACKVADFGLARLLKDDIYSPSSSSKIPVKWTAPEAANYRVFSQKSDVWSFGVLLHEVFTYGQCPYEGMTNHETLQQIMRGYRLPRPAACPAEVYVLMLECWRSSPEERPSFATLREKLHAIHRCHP
Chain of Mitogen-activated protein kinase kinase kinase kinase 4 (O95819 2-1239 limits assumed): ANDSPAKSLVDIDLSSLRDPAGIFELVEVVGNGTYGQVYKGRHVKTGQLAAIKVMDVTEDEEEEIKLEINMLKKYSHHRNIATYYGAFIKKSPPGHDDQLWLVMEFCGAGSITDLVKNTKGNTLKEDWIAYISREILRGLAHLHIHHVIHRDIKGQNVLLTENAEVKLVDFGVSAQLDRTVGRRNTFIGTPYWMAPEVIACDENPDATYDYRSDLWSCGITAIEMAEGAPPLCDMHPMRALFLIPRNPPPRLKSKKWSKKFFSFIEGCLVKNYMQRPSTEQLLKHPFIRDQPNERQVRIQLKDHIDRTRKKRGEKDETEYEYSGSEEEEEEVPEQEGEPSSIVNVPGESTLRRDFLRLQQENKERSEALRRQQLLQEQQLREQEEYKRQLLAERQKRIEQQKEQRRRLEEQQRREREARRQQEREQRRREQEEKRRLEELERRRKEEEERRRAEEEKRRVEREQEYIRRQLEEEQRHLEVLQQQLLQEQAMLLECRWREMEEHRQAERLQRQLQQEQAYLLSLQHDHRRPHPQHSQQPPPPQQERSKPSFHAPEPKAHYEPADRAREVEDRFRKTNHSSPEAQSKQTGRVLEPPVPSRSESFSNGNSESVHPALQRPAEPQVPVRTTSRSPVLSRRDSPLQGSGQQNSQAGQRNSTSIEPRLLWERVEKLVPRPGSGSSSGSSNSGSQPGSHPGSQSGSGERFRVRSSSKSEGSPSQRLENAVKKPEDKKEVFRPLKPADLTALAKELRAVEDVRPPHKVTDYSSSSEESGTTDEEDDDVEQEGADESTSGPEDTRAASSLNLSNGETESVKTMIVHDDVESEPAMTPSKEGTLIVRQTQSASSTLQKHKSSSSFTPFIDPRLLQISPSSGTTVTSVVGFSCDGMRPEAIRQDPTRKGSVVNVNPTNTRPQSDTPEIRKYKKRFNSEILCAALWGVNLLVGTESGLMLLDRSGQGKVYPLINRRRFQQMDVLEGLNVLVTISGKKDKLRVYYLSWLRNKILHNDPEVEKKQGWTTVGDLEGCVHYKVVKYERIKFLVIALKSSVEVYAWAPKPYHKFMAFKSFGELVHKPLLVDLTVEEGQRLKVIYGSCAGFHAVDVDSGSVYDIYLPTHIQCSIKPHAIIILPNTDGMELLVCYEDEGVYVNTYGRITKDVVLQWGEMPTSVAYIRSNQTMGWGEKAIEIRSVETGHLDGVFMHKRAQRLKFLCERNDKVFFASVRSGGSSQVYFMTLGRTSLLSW
Chain of Death-associated protein kinase 3 (Homo sapiens) (O43293 whole entry, looked up): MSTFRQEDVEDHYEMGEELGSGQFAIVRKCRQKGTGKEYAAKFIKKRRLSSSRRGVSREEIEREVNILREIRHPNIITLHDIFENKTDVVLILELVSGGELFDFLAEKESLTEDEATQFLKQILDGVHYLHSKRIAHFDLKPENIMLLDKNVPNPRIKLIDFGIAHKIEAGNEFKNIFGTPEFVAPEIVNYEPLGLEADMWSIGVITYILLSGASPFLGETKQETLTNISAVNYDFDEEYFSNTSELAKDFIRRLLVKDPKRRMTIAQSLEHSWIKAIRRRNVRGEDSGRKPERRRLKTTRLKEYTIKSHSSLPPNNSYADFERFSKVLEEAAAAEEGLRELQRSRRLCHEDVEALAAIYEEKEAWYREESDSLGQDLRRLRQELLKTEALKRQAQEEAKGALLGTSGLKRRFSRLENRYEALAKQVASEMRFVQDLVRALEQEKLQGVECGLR

Regarding `Cn1cc(-n2cnc3c(NCc4nc5cc(Cl)c(Cl)cc5[nH]4)nc(N4CCOCC4)nc32)cn1`, the % of inhibition in [1] was -8.96%.

For the compound `CCN(CC)CCCCNc1ncc2cc(-c3cc(OC)cc(OC)c3)c(NC(=O)NC(C)(C)C)nc2n1`, the % of control in [2] and in test [3] was 100% in each case.

Consider `O=C(NOC[C@H](O)CO)c1ccc(F)c(F)c1Nc1ccc(I)cc1F`, for which the % of control in [4] was found to be 95%; in test [5] it was 69%.

In turn, `CNC(=O)Nc1ccc(-c2nc(N3CC4CCC(C3)O4)c3cnn(C4CCC5(CC4)OCCO5)c3n2)cc1` showed a % of control in [6] of 100%.

In the case of `C=CC(=O)Nc1cccc(C(=O)Nc2ccc(Nc3cc(-c4[nH]c(SC)nc4C)ccn3)cc2)c1`, the % of control in test [7] (at 1 µM) is 95%; in test [7] (at 5 µM), 97%; in test [8] (at 1 µM), 67%; in test [8] (at 5 µM), 29%.

Consider `COc1cc(Nc2nc(C)cc(-c3cnn4nc(OC)ccc34)n2)cc(C(F)(F)F)c1`, for which the % of control in [9] came out at 84%.

The term IC50 denotes the point on the concentration scale where inhibition reaches its midpoint. In the case of `CCC(=O)N1CC[C@H](Nc2ncnc3c2CN(c2cnc(OC)c(C(F)(F)F)c2)CC3)C1` [LENIOLISIB], the concentration for half-maximal inhibition (IC50) at Histamine H1 receptor was greater than 30 µM.

In test [10], `O[C@H]1CC[C@H](Nc2ncc3nc(Nc4c(F)cc(F)cc4F)n([C@H]4CCOC4)c3n2)CC1` registered a % of control of 98%.

Compound `CCC(=O)N1CCN(c2ccc(-n3c(=O)ccc4cnc5ccc(-c6cnc7ccccc7c6)cc5c43)cc2C(F)(F)F)CC1` registered a % of control in test [11] of 100%.

The compound `Nc1cnc(N2CCc3cc(S(=O)(=O)Nc4c(F)cc(Cl)cc4F)cc(N4CCCC4=O)c32)nc1` [TP-020n] yielded a % of control in test [12] of 78%.
